Reference: ChEMBL document CHEMBL4414576, “Recent advancements in mechanistic studies and structure activity relationship of FoF1 ATP synthase inhibitor as antimicrobial agent” (Eur J Med Chem, 2019)
pIC50: −log10 of the molar value. In brackets after ≈: the same amount, converted by molar mass.

Key:
Escherichia coli [1] = experiment: Inhibition of F1F0-ATP synthase in Escherichia coli after 60 mins relative to control; design: concentration or dose not given beside the values
[2] = system: Mycobacterium tuberculosis; experiment: Antimicrobial activity against Mycobacterium tuberculosis H37Rv after 5 days; assay type: functional
ATP synthase = experiment: Inhibition of ATP synthase in Mycobacterium tuberculosis H37Rv; assay type: protein-complex assay
Saccharomyces cerevisiae = experiment: Inhibition of F1F0-ATP synthase in yeast relative to control; settings: concentration not given here
[3] = Inhibition of F1F0-ATP synthase in Escherichia coli
Escherichia coli [4] = experiment: Inhibition of F1F0-ATP synthase in Escherichia coli relative to control; design: concentration or dose not given beside the values; settings: concentration not given here
[5] = system: Mycobacterium tuberculosis H37Rv; experiment: Inhibition of F0F1-ATP synthase in Mycobacterium tuberculosis H37Rv at […] using succinate as substrate preincubated for 10 mins followed by substrate addition by luciferase reporter gene assay relative to control
[6] = Inhibition of F1F0-ATP synthase in Escherichia coli after 60 mins
Streptococcus pneumoniae = experiment: Antimicrobial activity against Streptococcus pneumoniae ATCC 49619; assay type: functional
[7] = Inhibition of ATP synthase isolates from rat brain cells using succinate as substrate preincubated for 5 mins followed by substrate addition
[8] = Inhibition of ATP synthase in Escherichia coli
Escherichia coli [9] = experiment: Inhibition of ATP synthase in Escherichia coli relative to control; settings: concentration not given here
[10] = Selectivity index, ratio of CC50 for human HepG2 cells to MIC of Mycobacterium tuberculosis H37Rv; assay type: toxicity
[11] = Inhibition of ATP synthase in Mycobacterium smegmatis; design: species or system Mycolicibacterium smegmatis
[12] = system: Mycobacterium tuberculosis; experiment: Antimicrobial activity against Mycobacterium tuberculosis H37Rv; assay type: functional, organism-based
[13] = Selectivity index, ratio of CC50 for African green monkey Vero cells to IC50 of Mycobacterium tuberculosis H37Rv; assay type: toxicity; settings: read-out: Ratio IC50

O=c1c(-c2ccc(O)cc2)coc2cc(O)ccc12 gave an inhibition (Escherichia coli [1]) of 0 to 20%.
Compound CCN(CC)Cc1cc(N(c2cc(C)nc3cc(Cl)ccc23)S(=O)(=O)c2cc(C)cc(C)c2)ccc1O has an MIC [2] of 6.25 µg/mL (≈ 11.6 µM) and a pIC50 (ATP synthase) of 5.74 to 6.44.
COc1cc(=O)oc(/C=C/C=C/C=C/C(C)=C/[C@]2(C)O[C@H](C)[C@](C)(O)[C@H]2O)c1C showed an inhibition (Saccharomyces cerevisiae) of 85%.
With Oc1ccc(/N=C/c2ccccc2O)cc1 the pIC50 [3] was 5.30 and the inhibition (Escherichia coli [4]) was 100%.
For Oc1ccccc1O, the inhibition (Escherichia coli [4]) was 40%.
Work on COc1ccccc1N1CCN(CC(O)COC(c2ccccc2)c2cccc3ccccc23)CC1 (stereo not drawn) yielded an inhibition [5] of 90%.
With Oc1cc2cc3ccccc3cc2c(O)c1O the inhibition (Escherichia coli [4]) was 30%.
Oc1ccccc1/C=N/c1ccccc1O showed a pIC50 [3] of 5.15 and an inhibition (Escherichia coli [4]) of 95%.
Oc1cc(O)c2c(c1)OC(c1ccc(O)c(O)c1)C(O)C2 (stereo not drawn) [CATECHIN] gave a pIC50 [6] of 2.40 and an inhibition (Escherichia coli [1]) of 100%.
In the case of COc1ccc(CC[C@@](O)(CCN(C)C)[C@@H](c2ccccc2)c2cc3cc(Br)ccc3nc2OC)cc1, the MIC (Streptococcus pneumoniae) was 0.25 µg/mL (≈ 0.444 µM).
In the case of Oc1ccc(/C=C/c2cc(O)cc(O)c2)cc1 [RESVERATROL], the pIC50 [7] was 4.72, the pIC50 [8] was 4.03 and the inhibition (Escherichia coli [9]) was 40%.
CCN(CC)Cc1cc(N(c2cc(C)nc3cc(Cl)ccc23)S(=O)(=O)c2ccc(Cl)cc2)ccc1O gave an MIC [2] of 6.25 µg/mL (≈ 11.5 µM) and a pIC50 (ATP synthase) of 5.74 to 6.44.
For O=c1cc(-c2ccccc2)oc2cc(O)c(O)c(O)c12 [BAICALEIN], the pIC50 [6] was 3.54 and the inhibition (Escherichia coli [1]) was 100%.
For O=c1cc(-c2ccc(O)c(O)c2)oc2cc(O)cc(O)c12, the inhibition (Escherichia coli [1]) was 0 to 20%.
Work on O=c1cc(-c2ccc(O)cc2)oc2cc(O)cc(O)c12 yielded an inhibition (Escherichia coli [1]) of 40 to 60%.
Work on COc1nc2ccc(Br)cc2cc1[C@@H](c1ccccc1)[C@@](O)(CCN(C)C)c1cccc2ccccc12 [BEDAQUILINE] yielded a selectivity ratio [10] greater than 20000, a pIC50 [11] of 5.19 and an MIC [12] of 3.6 µg/mL (≈ 6.48 µM).
In the case of NNC(=O)c1ccncc1, the inhibition [5] was 99%.
For Oc1ccc(O)cc1, the inhibition (Escherichia coli [4]) was 80%.
Compound O=C(O[C@@H]1Cc2c(O)cc(O)cc2O[C@@H]1c1cc(O)c(O)c(O)c1)c1cc(O)c(O)c(O)c1 [EPIGALOCATECHIN GALLATE] has a pIC50 [7] of 4.77.
Work on C[C@@H]1O[C@@H](OC[C@H]2O[C@@H](Oc3c(-c4ccc(O)c(O)c4)oc4cc(O)cc(O)c4c3=O)[C@H](O)[C@@H](O)[C@@H]2O)[C@H](O)[C@H](O)[C@H]1O yielded an inhibition (Escherichia coli [1]) of 40 to 60%.
Compound Oc1cccc(O)c1 has an inhibition (Escherichia coli [4]) of 20%.
O=c1cc(-c2ccccc2)oc2cc(O)cc(O)c12 showed an inhibition (Escherichia coli [1]) of 40 to 60%.
Compound CC(N)C12CC3CC(CC(C3)C1)C2 (stereo not drawn) [RIMANTADINE] has a pIC50 [6] of 2.70 and an inhibition (Escherichia coli [1]) of 100%.
In the case of O=C(CNC1CCCCC1)N(c1ccccc1)c1ccccc1, the pIC50 [12] was 4.85 and the selectivity ratio [13] was 21.1.
With Oc1cc(O)cc(/C=C/c2ccc(O)c(O)c2)c1 [PICEATANNOL] the pIC50 [7] was 5.10, the pIC50 [8] was 4.85 and the inhibition (Escherichia coli [9]) was 100%.
O=c1c(O)c(-c2ccc(O)c(O)c2)oc2cc(O)cc(O)c12 [QUERCETIN] showed a pIC50 [8] of 4.48 and an inhibition (Escherichia coli [9]) of 80%.
With NC12CC3CC(CC(C3)C1)C2 [AMANTADINE] the pIC50 [6] was 2.60 and the inhibition (Escherichia coli [1]) was 100%.
Compound COc1cc(C2Oc3cc([C@H]4Oc5cc(O)cc(O)c5C(=O)[C@@H]4O)ccc3OC2CO)ccc1O (stereo partly drawn) [SILIBININ] has a pIC50 [6] of 3.47 and an inhibition (Escherichia coli [1]) of 100%.
O=c1c(O[C@@H]2O[C@H](CO)[C@@H](O)[C@H](O)[C@H]2O)c(-c2ccc(O)c(O)c2)oc2cc(O)cc(O)c12 [ISOQUERCETIN] showed a pIC50 [8] of 4.15 and an inhibition (Escherichia coli [9]) of 40%.
Compound Oc1cc2cc3ccccc3cc2cc1O has an inhibition (Escherichia coli [4]) of 22%.
